Measurements as given in patent US20170190671A1, “BIS(ARYL)CATECHOL DERIVATIVES AS HERBICIDES” (E I DU PONT DE NEMOURS AND COMPANY, priority 2014, published 2017).

Experiments:
Format in all cases: in vivo
[1] = test system: barnyardgrass (Echinochloa crus-galli); assay: Test B flooded paddy; details: Echinochloa crus-galli, 336 h; 250 g ai/ha, Flood, 13 to 15 days, scale 0 (no effect) to 100 (complete control); read-out: Plant response rating, Barnyardgrass
How it was run: (§1)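 In-water treatment: compound dosed into 3 cm flood over soil, water level unchanged throughout. Controls run alongside; visual assessment at day 13–15.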

[2] = test system: ducksalad (Heteranthera limosa); assay: Test B flooded paddy; details: Heteranthera limosa, 336 h; 250 g ai/ha, Flood, 13 to 15 days, scale 0 (no effect) to 100 (complete control); read-out: Plant response rating, Ducksalad
How it was run: as §1

rice (Oryza sativa) = assay: Test B flooded paddy; details: Oryza sativa, 336 h; 250 g ai/ha, Flood, 13 to 15 days, scale 0 (no effect) to 100 (complete control); read-out: Plant response rating, Rice
How it was run: as §1

[3] = test system: sedge, umbrella (small-flower umbrella sedge, Cyperus difformis); assay: Test B flooded paddy; details: Cyperus difformis, 336 h; 250 g ai/ha, Flood, 13 to 15 days, scale 0 (no effect) to 100 (complete control); read-out: Plant response rating, Sedge, Umbrella
How it was run: as §1

[4] = test system: Italian ryegrass (Lolium multiflorum); assay: Test A preemergence; details: Lolium multiflorum, pre-emergence, 240 h, 0 to 100 scale (0 no effect, 100 complete control), read-out: Ryegrass, Italian plant response rating
How it was run: (§2)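 Visual injury scored 0–100 (100 = complete control) against untreated controls about 10 days after treatment in a greenhouse. Test chemicals, formulated with surfactant in non-phytotoxic solvent, were sprayed on soil preemergence or on 2-10 cm, one- to two-leaf plants postemergence.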

[5] = test system: barnyardgrass (Echinochloa crus-galli); assay: Test A preemergence; details: Echinochloa crus-galli, pre-emergence, 240 h
How it was run: as §2

[6] = test system: giant foxtail (Setaria faberii); assay: Test A preemergence; details: Setaria faberi, pre-emergence, 240 h, 0 to 100 scale (0 no effect, 100 complete control), read-out: Foxtail, Giant plant response rating
How it was run: as §2

kochia (Kochia scoparia) [7] = assay: Test A preemergence; details: Bassia scoparia, pre-emergence, 240 h, 0 to 100 scale (0 no effect, 100 complete control), read-out: Kochia plant response rating
How it was run: as §2

[8] = test system: pigweed (Amaranthus retroflexus); assay: Test A preemergence; details: Amaranthus retroflexus, pre-emergence, 240 h, 0 to 100 scale (0 no effect, 100 complete control), read-out: Pigweed plant response rating
How it was run: as §2

[9] = test system: ragweed (common ragweed, Ambrosia elatior); assay: Test A preemergence; details: Ambrosia artemisiifolia, pre-emergence, 240 h, 0 to 100 scale (0 no effect, 100 complete control), read-out: Ragweed plant response rating
How it was run: as §2

[10] = test system: Italian ryegrass (Lolium multiflorum); assay: Test A postemergence; details: Lolium multiflorum, post-emergence, 240 h, 0 to 100 scale, read-out: Plant response rating, Ryegrass, Italian
How it was run: as §2

[11] = test system: barnyardgrass (Echinochloa crus-galli); assay: Test A postemergence; details: Echinochloa crus-galli, post-emergence, 240 h, 0 to 100 scale, read-out: Plant response rating, Barnyardgrass
How it was run: as §2

[12] = test system: blackgrass (Alopecurus myosuroides); assay: Test A postemergence; details: Alopecurus myosuroides, post-emergence, 240 h, 0 to 100 scale, read-out: Plant response rating, Blackgrass
How it was run: as §2

corn (Zea mays) = assay: Test A postemergence; details: Zea mays, post-emergence, 240 h, 0 to 100 scale
How it was run: as §2

[13] = test system: galium (catchweed bedstraw, Galium aparine); assay: Test A postemergence; details: Galium, post-emergence, 240 h, 0 to 100 scale, read-out: Plant response rating, Galium
How it was run: as §2

[14] = test system: giant foxtail (Setaria faberii); assay: Test A postemergence; details: Setaria faberi, post-emergence, 240 h, 0 to 100 scale, read-out: Plant response rating, Foxtail, Giant
How it was run: as §2

kochia (Kochia scoparia) [15] = assay: Test A postemergence; details: Bassia scoparia, post-emergence, 240 h, 0 to 100 scale, read-out: Plant response rating, Kochia
How it was run: as §2

[16] = test system: pigweed (Amaranthus retroflexus); assay: Test A postemergence; details: Amaranthus retroflexus, post-emergence, 240 h, 0 to 100 scale, read-out: Plant response rating, Pigweed
How it was run: as §2

[17] = test system: ragweed (common ragweed, Ambrosia elatior); assay: Test A postemergence; details: Ambrosia artemisiifolia, post-emergence, 240 h, 0 to 100 scale, read-out: Plant response rating, Ragweed
How it was run: as §2

[18] = test system: wheat (Triticum aestivum); assay: Test A postemergence; details: Triticum aestivum, post-emergence, 240 h, 0 to 100 scale, read-out: Plant response rating, Wheat
How it was run: as §2

[19] = test system: galium (catchweed bedstraw, Galium aparine); assay: Test C preemergence; details: Galium, pre-emergence, 336 h, scale 0 to 100, read-out: Plant response rating, Galium
How it was run: (§3)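 Treatment is preemergence to seeds in a loam and sand soil, or postemergence to plants 2 to 18 cm high in a peat moss-based medium. The compound is delivered in a non-phytotoxic solvent mixture including surfactant. Effects are judged by eye 13 to 15 days later on a 0 to 100 scale.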

[20] = test system: lambsquarters (Chenopodium album); assay: Test C preemergence; details: Chenopodium album, pre-emergence, 336 h, scale 0 to 100, read-out: Plant response rating, Lambsquarters
How it was run: as §3

[21] = test system: yellow nutsedge (Cyperus esculentus); assay: Test C preemergence; details: Cyperus, pre-emergence, 336 h, scale 0 to 100, read-out: Plant response rating, Nutsedge, Yellow
How it was run: as §3

N#Cc1cccc(Oc2ncc(Cl)cn2)c1Oc1ccc(Br)cn1 [Compound 15]
70%: pest or weed control at 125 g/ha ([12]; 125 g ai/ha) | pest or weed control at 16 g/ha ([20]; Preemergence, 16 g ai/ha)
98%: pest or weed control at 62 g/ha ([20]; 62 g ai/ha, preemergence)
100%: pest or weed control at 125 g/ha ([6]; 125 g ai/ha) | pest or weed control at 125 g/ha (kochia (Kochia scoparia) [7]; 125 g ai/ha) | pest or weed control at 125 g/ha ([8]; 125 g ai/ha) | pest or weed control at 31 g/ha ([16]; 31 g ai/ha) | pest or weed control at 125 g/ha ([16]; 125 g ai/ha) | pest or weed control at 31 g/ha ([19]; 31 g ai/ha, preemergence) | pest or weed control at 125 g/ha ([19]; 125 g ai/ha, preemergence) | pest or weed control at 16 g/ha ([19]; Preemergence, 16 g ai/ha)
40%: pest or weed control at 31 g/ha (kochia (Kochia scoparia) [15]; 31 g ai/ha)
75%: pest or weed control at 250 g/ha [2]
50%: pest or weed control at 125 g/ha ([10]; 125 g ai/ha) | pest or weed control at 31 g/ha ([13]; 31 g ai/ha)
80%: pest or weed control at 31 g/ha ([8]; 31 g ai/ha) | pest or weed control at 31 g/ha ([20]; 31 g ai/ha, preemergence)
0%: pest or weed control at 250 g/ha [1] | plant injury at 250 g/ha (rice (Oryza sativa)) | pest or weed control at 31 g/ha ([4]; 31 g ai/ha) | pest or weed control at 31 g/ha ([5]; 31 g ai/ha, 0 to 100 scale (0 no effect, 100 complete control), read-out: Barnyardgrass plant response rating) | pest or weed control at 31 g/ha ([9]; 31 g ai/ha) | pest or weed control at 125 g/ha ([9]; 125 g ai/ha) | pest or weed control at 31 g/ha ([10]; 31 g ai/ha) | pest or weed control at 31 g/ha ([11]; 31 g ai/ha) | pest or weed control at 31 g/ha ([12]; 31 g ai/ha) | plant injury at 31 g/ha ([18]; 31 g ai/ha) | pest or weed control at 31 g/ha ([21]; 31 g ai/ha, preemergence) | pest or weed control at 62 g/ha ([21]; 62 g ai/ha, preemergence) | pest or weed control at 16 g/ha ([21]; Preemergence, 16 g ai/ha)
90%: pest or weed control at 250 g/ha [3] | pest or weed control at 31 g/ha (kochia (Kochia scoparia) [7]; 31 g ai/ha) | pest or weed control at 125 g/ha ([13]; 125 g ai/ha) | pest or weed control at 125 g/ha ([14]; 125 g ai/ha) | pest or weed control at 125 g/ha (kochia (Kochia scoparia) [15]; 125 g ai/ha)
60%: pest or weed control at 125 g/ha ([5]; 125 g ai/ha, 0 to 100 scale, read-out: Plant response rating, Barnyardgrass) | pest or weed control at 31 g/ha ([6]; 31 g ai/ha)
25%: pest or weed control at 125 g/ha ([21]; 125 g ai/ha, preemergence)
20%: pest or weed control at 125 g/ha ([11]; 125 g ai/ha) | pest or weed control at 31 g/ha ([14]; 31 g ai/ha)
95%: pest or weed control at 62 g/ha ([19]; 62 g ai/ha, preemergence) | pest or weed control at 125 g/ha ([20]; 125 g ai/ha, preemergence)
10%: pest or weed control at 125 g/ha ([4]; 125 g ai/ha) | Corn plant response rating (crop injury, 0 = no effect, 100 = complete kill) at 31 g/ha (corn (Zea mays); 31 g ai/ha) | Corn plant response rating (crop injury, 0 = no effect, 100 = complete kill) at 125 g/ha (corn (Zea mays); 125 g ai/ha) | pest or weed control at 31 g/ha ([17]; 31 g ai/ha) | pest or weed control at 125 g/ha ([17]; 125 g ai/ha) | plant injury at 125 g/ha ([18]; 125 g ai/ha)
